Values of other authors, collected in US20190078102A1, “BIOSYNTHETIC PRODUCTION OF STEVIOL GLYCOSIDES AND PROCESSES THEREFORE” (Conagen-Inc., priority 2017, published 2019).

Details: background statement

In the case of C=C1C[C@@]23CC[C@H]4[C@@](C)(CCC[C@@]4(C)C(=O)O[C@@H]4O[C@H](CO)[C@@H](O)[C@H](O)[C@H]4O)[C@@H]2CC[C@]1(O[C@@H]1O[C@H](CO)[C@@H](O)[C@H](O)[C@H]1O[C@@H]1O[C@H](CO)[C@@H](O)[C@H](O)[C@H]1O)C3 [stevioside], the “times sweeter than sucrose” value is given as 100-150 times.
